Data from ChEMBL document CHEMBL1201862, “PubChem BioAssay data set” (2004).
Active and inactive are the calls of the source.

Columns and labels:
Estrogen receptor beta [1] = biological target: T1, Estrogen receptor beta (Homo sapiens, UniProt Q92731); experiment: blockers of SRC-3 recruitment to ERβ – biochemical, ELISA, streptavidin-HRP readout, orthogonal assay, confirmation (AID 1060)
Estrogen receptor beta [2] = biological target: T1, Estrogen receptor beta
[3] = viability inhibitors of stage V gametocytes – luminescence, dose response (AID 1117278); type: functional, cell-based;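 note: gametocytes exposed to compound for 24 hours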
[4] = viability loss in human Jurkat cells – cell-based, luminescence, cytotoxicity control for P. falciparum gametocyte viability project, dose response (AID 1117277); type: functional;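 note: potency reflects loss of cellular ATP meaning fewer viable cells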
[5] = viability of uninfected HEp-2 cells – cell-based, HTS, cytotoxicity control for RSV inhibitor project, dose response (AID 2410); type: functional; settings: human respiratory syncytial virus
Vero [6] = experiment: cells; type: functional, cell-based; settings: Chlorocebus sabaeus
cells [7] = experiment: cells
[8] = biological target: 5-hydroxytryptamine receptor 1E (Homo sapiens, UniProt P28566); experiment: Counterscreen assay for S1P3 antagonists: Dose response cell-based high throughput screening assay to identify antagonists of the 5-Hydroxytryptamine Receptor Subtype 1E (5HT1E). [Related pubchem assays: 1429, 485 ]; type: functional
[9] = biological target: Sphingosine 1-phosphate receptor 3 (Homo sapiens, UniProt Q99500); experiment: Dose response cell-based high throughput screening assay for antagonists of the Sphingosine 1-Phosphate Receptor 3 (S1P3). [Related pubchem assays: 1429, 485 ]; type: functional
[10] = biological target: T2, Low molecular weight phosphotyrosine protein phosphatase (Homo sapiens, UniProt P24666); experiment: inhibition of LMPTP-A enzymatic activity – biochemical, OMFP substrate, fluorescence intensity, set 2, dose response (AID 743307); type: functional
T2 sequence (P24666 whole entry): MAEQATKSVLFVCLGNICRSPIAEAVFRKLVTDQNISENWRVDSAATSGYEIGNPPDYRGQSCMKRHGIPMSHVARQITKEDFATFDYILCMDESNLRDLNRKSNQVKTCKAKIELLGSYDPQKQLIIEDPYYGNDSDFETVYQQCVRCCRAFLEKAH

[11] = biological target: T2, Low molecular weight phosphotyrosine protein phosphatase; experiment: inhibition of human LMPTP enzyme activity – biochemical, absorbance, pNPP substrate, LMPTP-A isoform, set 2, orthogonal assay, dose response (AID 743308); type: functional
[12] = viability loss of HPDE-C7K cells – cell-based, fluorescence, HTS, primary screen (AID 431); type: functional; settings: Homo sapiens
[13] = HPDE-C7 pancreatic duct cell viability loss – fluorescence, HTS (AID 430); type: functional, cell-based; settings: Homo sapiens
[14] = potency of ADAM10 substrate cleavage blockers – biochemical, QFRET, dose response (AID 743254);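 note: ADAM10 enzyme with the DM2 quenched FRET peptide as substrate; EDANS fluorescence gain as the protease cuts the substrate; inhibitor potency against ADAM10 proteolytic activity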
Vero [15] = experiment: Vero cell viability after compound exposure – synthesized analogs, set II, cytotoxicity control for West Nile virus antiviral project, SAR follow-up (AID 2402); type: functional; settings: Chlorocebus sabaeus
[16] = A Cell Based Assay for the Identification of Probe candidate Compounds with Anti- Venezuelan Equine Encephalitis virus. [Related pubchem assays: 2409, 2419, 1621, 2238, 2405, 2024, 2065, 2402, 2414, 1635, 1650, 2244 ]; type: functional
[17] = biological target: T3, Zinc finger protein mex-5 (Caenorhabditis elegans, UniProt Q9XUB2); experiment: potency of MEX-5 RNA-binding blockers – biochemical, C. elegans, fluorescence polarization, dose response (AID 1960)
T3 sequence (Q9XUB2 whole entry): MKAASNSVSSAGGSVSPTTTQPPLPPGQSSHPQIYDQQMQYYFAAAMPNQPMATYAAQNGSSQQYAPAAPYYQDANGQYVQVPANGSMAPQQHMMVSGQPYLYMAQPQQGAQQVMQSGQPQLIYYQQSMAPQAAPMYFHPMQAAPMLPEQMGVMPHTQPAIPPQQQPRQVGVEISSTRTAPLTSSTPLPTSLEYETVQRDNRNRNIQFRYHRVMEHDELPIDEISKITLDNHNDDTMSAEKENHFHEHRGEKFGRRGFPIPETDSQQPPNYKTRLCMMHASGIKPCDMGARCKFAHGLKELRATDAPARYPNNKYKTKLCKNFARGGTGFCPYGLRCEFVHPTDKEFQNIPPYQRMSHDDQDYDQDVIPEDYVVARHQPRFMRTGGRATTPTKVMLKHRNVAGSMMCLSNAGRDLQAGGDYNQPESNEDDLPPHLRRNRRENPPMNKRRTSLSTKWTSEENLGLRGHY

[18] = biological target: Mitogen-activated protein kinase 10 (Homo sapiens, UniProt P53779); experiment: Dose response biochemical screening assay for inhibitors of c-Jun N-Terminal Kinase 3 (JNK3). [Related pubchem assays: 746 ]
[19] = biological target: T4, RNA-binding protein pos-1 (Caenorhabditis elegans, UniProt G5EF15); experiment: disruptors of C. elegans POS-1 RNA interaction – biochemical, fluorescence polarization, dose response (AID 1964);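 note: purified POS-1 fused to maltose binding protein made in E. coli; potency of compounds blocking POS-1 binding to fluorescent RNA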
T4 sequence (G5EF15 whole entry): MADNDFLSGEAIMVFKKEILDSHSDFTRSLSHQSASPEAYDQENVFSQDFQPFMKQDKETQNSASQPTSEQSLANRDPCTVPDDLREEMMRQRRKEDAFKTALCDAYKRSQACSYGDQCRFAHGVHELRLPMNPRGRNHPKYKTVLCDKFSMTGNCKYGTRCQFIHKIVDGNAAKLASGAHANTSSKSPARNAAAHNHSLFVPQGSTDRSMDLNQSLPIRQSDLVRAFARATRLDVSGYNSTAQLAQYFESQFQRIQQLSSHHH

Cytochrome P450 2C9 = Cytochrome P450 2C9 (Homo sapiens, UniProt P11712); settings: Potency
[20] = biological target: T5, Voltage-gated N-type calcium channel alpha-1B subunit/Amyloid beta A4 precursor protein-binding family A member 1 (Homo sapiens, UniProt Q00975+Q02410); experiment: disruptors of Mint-PDZ/N-type channel peptide interaction – biochemical, HTRF, SAR follow-up (AID 2489); type: functional
[21] = biological target: T5, Voltage-gated N-type calcium channel alpha-1B subunit/Amyloid beta A4 precursor protein-binding family A member 1; experiment: disruptors of Mint-PDZ/N-type channel peptide interaction – biochemical, HTRF, set 2, SAR follow-up (AID 434980); type: functional
[22] = Trypanosoma cruzi growth suppression in host cells – NIH3T3 host cells, beta-gal luminescence, confirmation (AID 2044); type: functional, cell-based;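 note: intracellular parasites grown in NIH/3T3 mouse fibroblasts as host cells; luminescent beta-galactosidase reporter signal from transgenic T. cruzi replicating inside host cells; inhibitors lower the luminescence signal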
[23] = NIH3T3 cell viability loss – ATP luminescence, mouse fibroblasts, counter-screen, dose response (AID 2010); type: functional, cell-based;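 note: cells exposed to compound for about 90 hours before reading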
cells [24] = experiment: cells; remark: listed apart in the source

T1 sequence (Q92731 whole entry): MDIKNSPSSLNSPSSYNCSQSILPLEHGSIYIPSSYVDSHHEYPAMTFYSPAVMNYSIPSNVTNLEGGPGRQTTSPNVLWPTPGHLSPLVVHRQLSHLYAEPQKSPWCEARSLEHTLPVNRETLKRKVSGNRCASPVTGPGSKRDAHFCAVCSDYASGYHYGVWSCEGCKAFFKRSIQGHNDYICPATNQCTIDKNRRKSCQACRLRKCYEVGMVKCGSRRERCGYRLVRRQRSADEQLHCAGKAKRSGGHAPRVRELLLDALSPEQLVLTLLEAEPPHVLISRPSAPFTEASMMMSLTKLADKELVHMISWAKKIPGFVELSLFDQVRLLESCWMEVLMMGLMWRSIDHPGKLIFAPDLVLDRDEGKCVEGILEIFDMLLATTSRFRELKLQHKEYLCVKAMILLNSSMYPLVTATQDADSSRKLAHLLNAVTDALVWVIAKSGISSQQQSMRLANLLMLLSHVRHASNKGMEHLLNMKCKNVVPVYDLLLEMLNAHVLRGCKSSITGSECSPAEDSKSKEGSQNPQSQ
T5 sequence (Q00975 whole entry): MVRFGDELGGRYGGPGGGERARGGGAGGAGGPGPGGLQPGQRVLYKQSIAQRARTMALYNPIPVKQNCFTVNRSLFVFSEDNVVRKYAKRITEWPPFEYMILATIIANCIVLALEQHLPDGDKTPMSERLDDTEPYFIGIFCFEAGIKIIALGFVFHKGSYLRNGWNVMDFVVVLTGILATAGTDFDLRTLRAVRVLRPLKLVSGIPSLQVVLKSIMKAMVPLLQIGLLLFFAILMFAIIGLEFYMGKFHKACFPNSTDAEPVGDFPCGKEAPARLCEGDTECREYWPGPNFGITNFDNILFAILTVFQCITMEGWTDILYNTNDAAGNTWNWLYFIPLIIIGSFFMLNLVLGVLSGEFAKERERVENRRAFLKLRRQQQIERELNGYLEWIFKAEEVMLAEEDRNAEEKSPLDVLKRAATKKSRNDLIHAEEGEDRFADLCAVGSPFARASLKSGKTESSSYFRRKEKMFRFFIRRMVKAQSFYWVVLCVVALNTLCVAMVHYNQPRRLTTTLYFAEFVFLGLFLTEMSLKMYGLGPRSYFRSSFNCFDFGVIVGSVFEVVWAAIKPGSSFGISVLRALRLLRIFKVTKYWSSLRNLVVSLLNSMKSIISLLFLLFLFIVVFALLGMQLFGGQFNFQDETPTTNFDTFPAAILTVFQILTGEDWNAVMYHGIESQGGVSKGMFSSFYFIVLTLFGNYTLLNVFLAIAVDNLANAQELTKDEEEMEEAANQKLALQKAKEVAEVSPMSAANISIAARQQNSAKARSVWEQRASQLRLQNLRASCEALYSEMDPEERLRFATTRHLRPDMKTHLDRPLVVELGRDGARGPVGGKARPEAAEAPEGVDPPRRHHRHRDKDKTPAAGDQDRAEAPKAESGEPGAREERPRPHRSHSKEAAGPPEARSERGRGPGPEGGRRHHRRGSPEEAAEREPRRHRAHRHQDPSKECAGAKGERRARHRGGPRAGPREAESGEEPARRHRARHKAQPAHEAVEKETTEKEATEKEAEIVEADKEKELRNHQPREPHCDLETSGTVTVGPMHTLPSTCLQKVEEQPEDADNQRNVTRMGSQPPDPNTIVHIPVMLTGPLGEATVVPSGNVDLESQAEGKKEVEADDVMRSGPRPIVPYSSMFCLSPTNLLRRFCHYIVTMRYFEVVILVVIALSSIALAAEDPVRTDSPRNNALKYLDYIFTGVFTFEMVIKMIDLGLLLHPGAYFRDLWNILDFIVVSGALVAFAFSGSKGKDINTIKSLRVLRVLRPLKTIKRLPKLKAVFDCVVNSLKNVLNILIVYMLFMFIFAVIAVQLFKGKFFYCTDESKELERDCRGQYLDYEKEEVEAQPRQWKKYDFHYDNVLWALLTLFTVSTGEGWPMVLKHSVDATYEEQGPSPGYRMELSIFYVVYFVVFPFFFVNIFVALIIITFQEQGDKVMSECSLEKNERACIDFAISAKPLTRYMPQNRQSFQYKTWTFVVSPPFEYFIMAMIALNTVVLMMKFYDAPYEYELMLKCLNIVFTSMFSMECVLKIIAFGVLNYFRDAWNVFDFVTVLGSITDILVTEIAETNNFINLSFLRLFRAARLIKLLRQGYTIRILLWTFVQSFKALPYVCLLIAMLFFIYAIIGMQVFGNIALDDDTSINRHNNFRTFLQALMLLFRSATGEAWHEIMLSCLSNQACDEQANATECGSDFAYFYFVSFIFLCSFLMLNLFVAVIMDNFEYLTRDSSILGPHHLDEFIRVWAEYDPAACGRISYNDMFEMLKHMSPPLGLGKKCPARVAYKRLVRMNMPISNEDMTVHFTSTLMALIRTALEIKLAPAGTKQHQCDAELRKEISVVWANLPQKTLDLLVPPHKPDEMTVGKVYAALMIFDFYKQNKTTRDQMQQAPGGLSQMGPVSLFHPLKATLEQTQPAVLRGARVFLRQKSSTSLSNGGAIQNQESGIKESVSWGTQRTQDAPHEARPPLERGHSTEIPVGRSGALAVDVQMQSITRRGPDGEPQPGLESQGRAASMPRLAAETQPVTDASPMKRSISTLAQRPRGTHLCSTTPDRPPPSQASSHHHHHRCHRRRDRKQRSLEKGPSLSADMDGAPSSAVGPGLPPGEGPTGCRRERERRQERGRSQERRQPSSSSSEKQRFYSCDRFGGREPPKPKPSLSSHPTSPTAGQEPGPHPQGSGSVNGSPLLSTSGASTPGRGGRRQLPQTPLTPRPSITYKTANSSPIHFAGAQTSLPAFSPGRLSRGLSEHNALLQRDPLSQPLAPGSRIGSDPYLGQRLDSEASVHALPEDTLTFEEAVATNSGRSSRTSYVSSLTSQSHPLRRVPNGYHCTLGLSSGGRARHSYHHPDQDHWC
T5 sequence (Q02410 whole entry): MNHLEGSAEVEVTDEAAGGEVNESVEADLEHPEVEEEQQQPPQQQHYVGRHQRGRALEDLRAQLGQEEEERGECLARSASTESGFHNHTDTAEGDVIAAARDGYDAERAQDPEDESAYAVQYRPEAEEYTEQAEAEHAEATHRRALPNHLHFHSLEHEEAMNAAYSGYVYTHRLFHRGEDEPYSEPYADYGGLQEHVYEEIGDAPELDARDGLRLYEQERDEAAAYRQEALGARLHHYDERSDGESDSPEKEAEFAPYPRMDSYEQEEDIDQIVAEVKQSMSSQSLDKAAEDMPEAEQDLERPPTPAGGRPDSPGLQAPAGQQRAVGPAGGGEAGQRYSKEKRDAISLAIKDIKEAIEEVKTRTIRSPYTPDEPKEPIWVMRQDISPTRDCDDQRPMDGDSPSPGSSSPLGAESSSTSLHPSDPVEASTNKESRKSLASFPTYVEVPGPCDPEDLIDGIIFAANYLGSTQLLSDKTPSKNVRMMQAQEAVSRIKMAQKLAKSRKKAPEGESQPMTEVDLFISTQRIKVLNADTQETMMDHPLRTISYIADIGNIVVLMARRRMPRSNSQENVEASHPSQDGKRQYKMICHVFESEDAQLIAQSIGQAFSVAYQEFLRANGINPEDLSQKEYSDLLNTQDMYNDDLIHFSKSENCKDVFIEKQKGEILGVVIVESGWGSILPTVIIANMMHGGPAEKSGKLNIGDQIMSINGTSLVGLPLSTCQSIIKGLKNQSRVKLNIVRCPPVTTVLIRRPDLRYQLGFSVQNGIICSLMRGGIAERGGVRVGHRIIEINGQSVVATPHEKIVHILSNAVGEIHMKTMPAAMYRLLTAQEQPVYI
Sequence of Cytochrome P450 2C9 (P11712 whole entry): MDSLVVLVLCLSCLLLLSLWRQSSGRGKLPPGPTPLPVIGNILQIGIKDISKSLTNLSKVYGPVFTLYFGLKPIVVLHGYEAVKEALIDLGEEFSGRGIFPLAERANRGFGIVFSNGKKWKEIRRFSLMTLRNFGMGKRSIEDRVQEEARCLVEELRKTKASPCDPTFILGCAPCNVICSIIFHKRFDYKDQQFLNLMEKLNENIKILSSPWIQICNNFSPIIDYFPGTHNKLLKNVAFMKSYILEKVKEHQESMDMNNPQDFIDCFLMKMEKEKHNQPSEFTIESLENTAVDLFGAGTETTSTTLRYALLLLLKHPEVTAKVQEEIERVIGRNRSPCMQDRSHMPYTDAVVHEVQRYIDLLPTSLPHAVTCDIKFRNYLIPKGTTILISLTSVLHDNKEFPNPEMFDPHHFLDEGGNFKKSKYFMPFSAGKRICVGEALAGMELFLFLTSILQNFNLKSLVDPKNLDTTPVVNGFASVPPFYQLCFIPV
Sequence of Sphingosine 1-phosphate receptor 3 (Q99500 whole entry): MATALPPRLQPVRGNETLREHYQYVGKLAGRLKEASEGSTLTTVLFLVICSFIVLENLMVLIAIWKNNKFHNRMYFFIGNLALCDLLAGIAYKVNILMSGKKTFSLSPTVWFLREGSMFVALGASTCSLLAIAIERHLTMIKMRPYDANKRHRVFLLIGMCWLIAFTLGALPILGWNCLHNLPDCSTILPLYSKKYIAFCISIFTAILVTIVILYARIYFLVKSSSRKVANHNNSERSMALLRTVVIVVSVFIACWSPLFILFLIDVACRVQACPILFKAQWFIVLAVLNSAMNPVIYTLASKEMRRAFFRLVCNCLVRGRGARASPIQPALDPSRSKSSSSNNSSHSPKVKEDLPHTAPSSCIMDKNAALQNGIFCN
Sequence of 5-hydroxytryptamine receptor 1E (P28566 whole entry): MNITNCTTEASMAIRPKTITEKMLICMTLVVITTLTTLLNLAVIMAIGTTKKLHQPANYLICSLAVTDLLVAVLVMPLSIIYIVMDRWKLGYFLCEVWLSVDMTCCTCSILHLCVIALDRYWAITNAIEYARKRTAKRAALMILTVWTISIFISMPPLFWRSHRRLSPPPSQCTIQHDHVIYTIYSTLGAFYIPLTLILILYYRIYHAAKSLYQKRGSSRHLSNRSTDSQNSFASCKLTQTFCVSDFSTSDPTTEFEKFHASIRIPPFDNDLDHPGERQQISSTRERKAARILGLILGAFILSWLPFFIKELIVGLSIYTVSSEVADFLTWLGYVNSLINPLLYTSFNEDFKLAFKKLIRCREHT

N=c1c(-c2nc3ccccc3[nH]2)cc(C(=O)c2cccs2)nn1-c1ccc(Cl)cc1
IC50 (Estrogen receptor beta [1]): > 50 µM (not active) | IC50 (Estrogen receptor beta [2]): > 50 µM (not active)

O=C(CSc1nc2ccccc2[nH]1)NCc1ccco1
IC50 [3]: > 109 µM (inactive) | IC50 [4]: > 83.3 µM (inactive)

O=C(CCNC(=O)c1ccc(Cl)cc1)NC1CCCc2ccccc21 (configuration not stated)
CC50 [5]: 40.2 µM (active) | IC50 (Vero [6]): 19.8 µM (active) | IC50 (cells [7]): 13.4 µM (active)

CCc1ccccc1NC1c2ccccc2C(=O)N1Cc1ccco1 (configuration not stated)
IC50 [8]: 15.6 µM (not active) | IC50 [9]: > 50 µM (not active)

c1ccc(-c2nc(NCCN3CCOCC3)c3ccccc3n2)cc1
IC50 [10]: 25.4 µM (inactive) | IC50 [11]: 53.5 µM (inactive)

c1coc(-c2nnc3sc(Cc4cccs4)nn23)c1
IC50 (Estrogen receptor beta [1]): 4.41 µM (not active) | IC50 (Estrogen receptor beta [2]): < 1.56 µM (active)

c1ccc(-c2nc(NCCN3CCCCC3)c3ccccc3n2)cc1
IC50 [10]: 64.3 µM (inactive) | IC50 [11]: > 80 µM (inactive)

COc1ccc(-c2[nH]nc(C(F)(F)F)c2-c2cc3ccccc3o2)c(O)c1
EC50 [12]: 3.68 µM (active) | EC50 [13]: 3.24 µM (active) | IC50 [14]: > 69.5 µM (inactive)

COc1ccc(-c2csc(N(CCCBr)C(=O)c3ccccc3Cl)n2)cc1
CC50 (Vero [15]): 78.2 µM (active) | IC50 [16]: > 66.6 µM (active)

COC1(OC)N=C(N)C2(C#N)C(c3ccc4c(c3)OCO4)C12C#N (configuration not stated)
EC50 [17]: 64.3 µM (active) | IC50 [18]: > 93.1 µM (not active) | EC50 [19]: 59.9 µM (active)

CC(C)[C@]1(NC(=O)[C@H]2C=C3c4cccc5[nH]cc(c45)C[C@H]3N(C)C2)O[C@@]2(O)[C@H]3CCCN3C(=O)[C@H](Cc3ccccc3)N2C1=O
AC50 (Cytochrome P450 2C9): 7.94 µM (inconclusive)

Cc1ccc(N2C(=O)C3C(C2=O)C2(C)C=CC3(C)O2)cc1 (configuration not stated)
IC50 [20]: 11.5 µM (active) | IC50 [21]: > 56.8 µM (inactive)

CC(=O)c1ccc(OC2C=CC(c3ccc(Cl)cc3)OC2CO)cc1 (configuration not stated)
AC50 (Cytochrome P450 2C9): 5.01 µM (inconclusive)

Cc1ccc(NC(=O)C(C)c2ccc([N+](=O)[O-])cc2)cc1Cl (configuration not stated)
IC50 [8]: 13.4 µM (not active) | IC50 [9]: 11.3 µM (not active)

COc1ccc(/C=C/CN2CCCC(CCC(=O)NCc3ccc(F)c(F)c3)C2)cc1 (configuration not stated)
EC50 [22]: < 0.1 µM (active) | EC50 [23]: > 60 µM (not active) | EC50 (cells [24]): 0.037 µM (active)
